Reference: patent US20110098242A1, “Methods and Compositions for Diagnosing and Treating Cervical Intraepithelial Neoplasia and Cervical Cancer” (priority 2008, published 2011)

Tests used:
Format in all cases: cell-based, human
[1] = system: cystatin E/M gene; assay: RT PCR analysis of cystatin E/M expression in treated SiHa cells
[2] = system: cystatin E/M; assay: Immunofluorescence of cystatin E/M protein in treated HeLa cells; settings: 24 hours post-treatment, 5 μM 5-AzaCdR
From the text: (§1) To verify that cystatin E/M expression was not limited to RNA synthesis and to identify the cellular location of protein expression, immunofluorescence (IF) was used. Cystatin E/M expression was absent in the untreated HeLa cells. […] There was uniform expression in the cytoplasm of all cells. […] Thus, re-expression of the gene by treatment with 5-AzaCdR and TSA in HeLa and SiHa cells, respectively, confirmed promoter methylation and/or histone deacetylation playing a role in the inactivation of cystatin E/M expression in these two cell lines.
(§2) Cells were grown overnight on cover slips to semiconfluency (about 70 to 80%) and treated with 5- AzaCdR or TSA, or transfected with plasmid DNAs. Immunofluorescence was performed using the anti cystatin E/M antibody (R & D Systems, Minneapolis, Minn.) following an established protocol. See LoTempio et al. (2005).

[3] = system: cystatin E/M gene promoter; assay: Sodium bisulfite PCR and sequencing of cystatin E/M promoter CpG methylation in HeLa cells; settings: HeLa cells after treatment with 5-AzaCdR
Method: Having established the promoter activity, four different cell lines and 18 primary tumors were examined for CpG methylation using the sodium bisulfite protocol. Normal endometrium from 16 of the tumors, four different non-involved normal lymphocytes and a lung tissue were used as controls. The analysis was performed using the sequences spanning the −14 to −151 by region of the promoter (NT—033903.7). […] Untreated HeLa cells yielded the 138 by product with the methylation specific PCR. Cell lines Caski, C41, C33A, three of 21 normal tissues (14%) and 7 of 16 tumors (44%) gave the PCR product with both the unmethylation and methylation specific PCRs. Five other tumors (31%) contained only the methlyation specific product. Thus, there was a significant frequency of methylated promoter in the cervical tumors ([…] in tumors versus 3 of 21, 14% in normals, P<0.01, Student's t-test). Methylation in the three normal endometrial tissues could also represent tumor cell contamination. Four of the tumors contained methylation and point mutation (Table 1, FIG. 4A) indicating possible two hits for the functional inactivation of the cystatin E/M gene.
To confirm promoter hypermethylation in the cell lines, sequencing was carried out on the PCR products cloned into the pTOPO plasmid vector. […]

[4] = system: cystatin E/M; assay: Immunofluorescence of cystatin E/M protein in treated SiHa cells; settings: TSA treatment
From the text: as §1, §2

| Structure (SMILES) | cystatin E/M RNA expression ([1]; 5 μM and 10 μM 5-AzaCdR) | cystatin E/M RNA expression ([1]; 50 μM 5-AzaCdR) | cystatin E/M protein expression by immunofluorescence [2] | methylation of C residues in promoter CpG sequences [3] | cystatin E/M RNA expression ([1]; TSA 150 μM) | cystatin E/M protein expression by immunofluorescence [4] |
| --- | --- | --- | --- | --- | --- | --- |
| Nc1ncn([C@H]2C[C@H](O)[C@@H](CO)O2)c(=O)n1 [5-AzaCdR, 5′Aza 2-deoxycytidine] | did not show expression | low level expression | cystatin E/M expression was observed | demethylation of the C residues | – | – |
| CC(/C=C/C(=O)NO)=C\[C@@H](C)C(=O)c1ccc(N(C)C)cc1 [TSA, Trichostatin A] | – | – | – | – | High level RNA expression | uniform cytoplasmic protein expression |
